In ChEMBL document CHEMBL5528028, “Discovery of benzopyridone cyanoacetates as new type of potential broad-spectrum antibacterial candidates” (Eur J Med Chem, 2024):
Converted amounts (≈) assume the structure as drawn.

What was measured:
Format in all cases: functional
Escherichia coli [1] = assay: Antibacterial activity against Escherichia coli assessed growth inhibition by micro broth dilution method
Enterococcus faecalis = assay: Antibacterial activity against Enterococcus faecalis assessed growth inhibition by micro broth dilution method
Staphylococcus aureus [2] = assay: Antibacterial activity against methicillin-resistant Staphylococcus aureus assessed growth inhibition by micro broth dilution method
Staphylococcus aureus [3] = assay: Antibacterial activity against Staphylococcus aureus ATCC 29213 assessed growth inhibition by micro broth dilution method
Staphylococcus aureus [4] = assay: Antibacterial activity against Staphylococcus aureus assessed growth inhibition by micro broth dilution method
Klebsiella pneumoniae = assay: Antibacterial activity against Klebsiella pneumonia assessed growth inhibition by micro broth dilution method
Pseudomonas aeruginosa [5] = assay: Antibacterial activity against Pseudomonas aeruginosa assessed growth inhibition by micro broth dilution method
Staphylococcus aureus [6] = assay: Antibacterial activity against Staphylococcus aureus ATCC 25923 assessed growth inhibition by micro broth dilution method
Pseudomonas aeruginosa [7] = assay: Antibacterial activity against Pseudomonas aeruginosa ATCC 27853 assessed growth inhibition by micro broth dilution method
Acinetobacter baumannii = assay: Antibacterial activity against Acinetobacter baumannii assessed growth inhibition by micro broth dilution method
Escherichia coli [8] = assay: Antibacterial activity against Escherichia coli ATCC 25922 assessed growth inhibition by micro broth dilution method

SMILES	MIC (Escherichia coli [1]) [µg/mL]	MIC (Enterococcus faecalis) [µg/mL]	MIC (Staphylococcus aureus [2]) [µg/mL]	MIC (Staphylococcus aureus [3]) [µg/mL]	MIC (Staphylococcus aureus [4]) [µg/mL]	MIC (Klebsiella pneumoniae) [µg/mL]	MIC (Pseudomonas aeruginosa [5]) [µg/mL]	MIC (Staphylococcus aureus [6]) [µg/mL]	MIC (Pseudomonas aeruginosa [7]) [µg/mL]	MIC (Acinetobacter baumannii) [µg/mL]	MIC (Escherichia coli [8]) [µg/mL]
CCOC(=O)c1cn(Cc2ccccn2)c2cc([C-](C#N)C(=O)OCC)c(F)cc2c1=O.[Na+] (centres undefined)	256	256	256	256	256	256	128	256	128	256	128
CCOC(=O)c1cn(CC(=O)N2CCN(C(=O)OC(C)(C)C)CC2)c2cc(F)c(F)cc2c1=O	4 (≈ 8.34 µM)	64 (≈ 133 µM)	64 (≈ 133 µM)	64 (≈ 133 µM)	256 (≈ 534 µM)	256 (≈ 534 µM)	64 (≈ 133 µM)	128 (≈ 267 µM)	32 (≈ 66.7 µM)	64 (≈ 133 µM)	64 (≈ 133 µM)
CCOC(=O)c1cn(CC)c2cc(C(C#N)C(=O)OCC)c(F)cc2c1=O (centres undefined)	16 (≈ 42.7 µM)	32 (≈ 85.5 µM)	256 (≈ 684 µM)	16 (≈ 42.7 µM)	32 (≈ 85.5 µM)	8 (≈ 21.4 µM)	8 (≈ 21.4 µM)	8 (≈ 21.4 µM)	8 (≈ 21.4 µM)	32 (≈ 85.5 µM)	16 (≈ 42.7 µM)
CCOC(=O)c1cn(Cc2ccc(F)cc2F)c2cc(F)c(F)cc2c1=O	16 (≈ 42.2 µM)	256 (≈ 675 µM)	256 (≈ 675 µM)	256 (≈ 675 µM)	256 (≈ 675 µM)	0.25 (≈ 0.659 µM)	64 (≈ 169 µM)	256 (≈ 675 µM)	256 (≈ 675 µM)	16 (≈ 42.2 µM)	128 (≈ 337 µM)
CCOC(=O)c1cn(Cc2ccc(C)cc2)c2cc(F)c(F)cc2c1=O	1 (≈ 2.8 µM)	64 (≈ 179 µM)	256 (≈ 716 µM)	128 (≈ 358 µM)	64 (≈ 179 µM)	128 (≈ 358 µM)	128 (≈ 358 µM)	64 (≈ 179 µM)	256 (≈ 716 µM)	2 (≈ 5.6 µM)	128 (≈ 358 µM)
CCOC(=O)c1cn(Cc2ccccc2)c2cc(F)c(F)cc2c1=O	2 (≈ 5.83 µM)	128 (≈ 373 µM)	256 (≈ 746 µM)	256 (≈ 746 µM)	128 (≈ 373 µM)	256 (≈ 746 µM)	256 (≈ 746 µM)	256 (≈ 746 µM)	256 (≈ 746 µM)	2 (≈ 5.83 µM)	128 (≈ 373 µM)
CCOC(=O)C(C#N)c1cc2c(cc1F)c(=O)c(C(=O)O)cn2Cc1ccc(F)cc1F (centres undefined)	16 (≈ 36 µM)	8 (≈ 18 µM)	8 (≈ 18 µM)	4 (≈ 9 µM)	4 (≈ 9 µM)	0.5 (≈ 1.13 µM)	16 (≈ 36 µM)	1 (≈ 2.25 µM)	2 (≈ 4.5 µM)	2 (≈ 4.5 µM)	0.5 (≈ 1.13 µM)
CCCCCCCCCCCCn1cc(C(=O)OCC)c(=O)c2cc(F)c([C-](C#N)C(=O)OCC)cc21.[Na+] (centres undefined)	1	8	8	1	32	1	4	1	0.25	0.25	0.5
CCCCCCCCn1cc(C(=O)OCC)c(=O)c2cc(F)c(F)cc21	4 (≈ 10.9 µM)	64 (≈ 175 µM)	256 (≈ 701 µM)	16 (≈ 43.8 µM)	4 (≈ 10.9 µM)	64 (≈ 175 µM)	64 (≈ 175 µM)	128 (≈ 350 µM)	256 (≈ 701 µM)	64 (≈ 175 µM)	64 (≈ 175 µM)
CCOC(=O)c1cn(C2CC2)c2cc([C-](C#N)C(=O)OCC)c(F)cc2c1=O.[Na+] (centres undefined)	16	16	16	32	32	16	32	8	16	32	32
CCOC(=O)C(C#N)c1cc2c(cc1F)c(=O)c(C(=O)O)cn2Cc1ccc(Cl)c(Cl)c1 (centres undefined)	128 (≈ 268 µM)	128 (≈ 268 µM)	32 (≈ 67 µM)	64 (≈ 134 µM)	64 (≈ 134 µM)	4 (≈ 8.38 µM)	16 (≈ 33.5 µM)	32 (≈ 67 µM)	4 (≈ 8.38 µM)	16 (≈ 33.5 µM)	0.5 (≈ 1.05 µM)
CCOC(=O)c1cn(CC)c2c(F)c([C-](C#N)C(=O)OCC)c(F)cc2c1=O.[Na+] (centres undefined)	64	32	32	16	16	16	64	16	16	32	1
CCOC(=O)c1cn(Cc2ccc(Cl)c(Cl)c2)c2cc(F)c(F)cc2c1=O	8 (≈ 19.4 µM)	128 (≈ 311 µM)	256 (≈ 621 µM)	256 (≈ 621 µM)	16 (≈ 38.8 µM)	0.5 (≈ 1.21 µM)	32 (≈ 77.6 µM)	256 (≈ 621 µM)	64 (≈ 155 µM)	256 (≈ 621 µM)	2 (≈ 4.85 µM)
CCOC(=O)C(C#N)c1c(F)cc2c(=O)c(C(=O)O)cn3c2c1OC[C@@H]3C (some centres undefined)	32 (≈ 85.5 µM)	128 (≈ 342 µM)	4 (≈ 10.7 µM)	4 (≈ 10.7 µM)	4 (≈ 10.7 µM)	8 (≈ 21.4 µM)	16 (≈ 42.7 µM)	32 (≈ 85.5 µM)	8 (≈ 21.4 µM)	1 (≈ 2.67 µM)	1 (≈ 2.67 µM)
